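Results reflect a 48-hour exposure of cells in 96-well plates to compound at five concentrations. GI50 is the concentration that inhibits growth by half. At the TGI there is no net growth.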
Assays:
Assay in all cases: DTP human tumour cell line panel, 48 h
786-0 renal = test system: 786-0 renal
A498 renal = test system: A498 renal
A549 NSCLC = test system: A549 NSCLC
ACHN renal = test system: ACHN renal
BT-549 breast = test system: BT-549 breast
CAKI-1 renal = test system: CAKI-1 renal
CCRF-CEM leukemia = test system: CCRF-CEM leukemia
COLO 205 colon = test system: COLO 205 colon
DU-145 prostate = test system: DU-145 prostate
EKVX NSCLC = test system: EKVX NSCLC
HCC-2998 colon = test system: HCC-2998 colon
HCT-116 colon = test system: HCT-116 colon
HCT-15 colon = test system: HCT-15 colon
HL-60(TB) leukemia = test system: HL-60(TB) leukemia
HOP-62 NSCLC = test system: HOP-62 NSCLC
HOP-92 NSCLC = test system: HOP-92 NSCLC
HS 578T breast = test system: HS 578T breast
HT29 colon = test system: HT29 colon
IGROV1 ovarian = test system: IGROV1 ovarian
K-562 leukemia = test system: K-562 leukemia
KM12 colon = test system: KM12 colon
LOX IMVI melanoma = test system: LOX IMVI melanoma
M14 melanoma = test system: M14 melanoma
MCF7 breast = test system: MCF7 breast
MDA-MB-231 breast = test system: MDA-MB-231 breast
MDA-MB-435 = test system: MDA-MB-435
MOLT-4 leukemia = test system: MOLT-4 leukemia
NCI-H226 lung = test system: NCI-H226 lung
NCI-H23 lung = test system: NCI-H23 lung
NCI-H460 lung = test system: NCI-H460 lung
NCI-H522 lung = test system: NCI-H522 lung
NCI/ADR-RES ovarian = test system: NCI/ADR-RES ovarian
OVCAR-4 ovarian = test system: OVCAR-4 ovarian
OVCAR-5 ovarian = test system: OVCAR-5 ovarian
OVCAR-8 ovarian = test system: OVCAR-8 ovarian
PC-3 prostate = test system: PC-3 prostate
RPMI-8226 leukemia = test system: RPMI-8226 leukemia
RXF 393 renal = test system: RXF 393 renal
SF-268 CNS = test system: SF-268 CNS
SF-295 CNS = test system: SF-295 CNS
SF-539 CNS = test system: SF-539 CNS
SK-MEL-2 melanoma = test system: SK-MEL-2 melanoma
SK-MEL-28 melanoma = test system: SK-MEL-28 melanoma
SK-MEL-5 melanoma = test system: SK-MEL-5 melanoma
SK-OV-3 ovarian = test system: SK-OV-3 ovarian
SN12C renal = test system: SN12C renal
SNB-19 CNS = test system: SNB-19 CNS
SNB-75 CNS = test system: SNB-75 CNS
SR leukemia = test system: SR leukemia
SW-620 colon = test system: SW-620 colon
TK-10 renal = test system: TK-10 renal
U251 CNS = test system: U251 CNS
UACC-257 melanoma = test system: UACC-257 melanoma
UACC-62 melanoma = test system: UACC-62 melanoma
UO-31 renal = test system: UO-31 renal

CCN1C(=O)N(CC)C2SC(N/N=C/c3ccc(OC)cc3)=NC21 (stereo not given)
GI50 (786-0 renal): 849 nM
TGI (786-0 renal): 51.7 µM
GI50 (A498 renal): 217 nM
TGI (A498 renal): 685 nM
GI50 (A549 NSCLC): 666 nM
TGI (A549 NSCLC): > 100 µM
GI50 (ACHN renal): 811 nM
TGI (ACHN renal): > 100 µM
GI50 (BT-549 breast): 322 nM
TGI (BT-549 breast): 1320 nM
GI50 (CAKI-1 renal): 425 nM
TGI (CAKI-1 renal): > 100 µM
GI50 (CCRF-CEM leukemia): 334 nM
TGI (CCRF-CEM leukemia): > 100 µM
GI50 (COLO 205 colon): 273 nM
TGI (COLO 205 colon): 751 nM
GI50 (DU-145 prostate): 478 nM
TGI (DU-145 prostate): > 100 µM
GI50 (EKVX NSCLC): 704 nM
TGI (EKVX NSCLC): > 100 µM
GI50 (HCC-2998 colon): 795 nM
TGI (HCC-2998 colon): > 100 µM
GI50 (HCT-116 colon): 394 nM
TGI (HCT-116 colon): > 40.3 µM
GI50 (HCT-15 colon): 404 nM
TGI (HCT-15 colon): > 100 µM
GI50 (HL-60(TB) leukemia): 281 nM
TGI (HL-60(TB) leukemia): 9.06 µM
GI50 (HOP-62 NSCLC): 433 nM
TGI (HOP-62 NSCLC): > 100 µM
GI50 (HOP-92 NSCLC): 283 nM
TGI (HOP-92 NSCLC): 4.66 µM
GI50 (HS 578T breast): 305 nM
TGI (HS 578T breast): > 100 µM
GI50 (HT29 colon): 322 nM
TGI (HT29 colon): 1280 nM
GI50 (IGROV1 ovarian): 648 nM
TGI (IGROV1 ovarian): > 100 µM
GI50 (K-562 leukemia): 350 nM
TGI (K-562 leukemia): > 100 µM
GI50 (KM12 colon): 457 nM
TGI (KM12 colon): > 100 µM
GI50 (LOX IMVI melanoma): 564 nM
TGI (LOX IMVI melanoma): > 100 µM
GI50 (M14 melanoma): 322 nM
TGI (M14 melanoma): 34.2 µM
GI50 (MCF7 breast): 381 nM
TGI (MCF7 breast): > 100 µM
GI50 (MDA-MB-231 breast): 868 nM
TGI (MDA-MB-231 breast): > 100 µM
GI50 (MDA-MB-435): 205 nM
TGI (MDA-MB-435): 522 nM
GI50 (MOLT-4 leukemia): 589 nM
TGI (MOLT-4 leukemia): > 100 µM
GI50 (NCI-H226 lung): 438 nM
TGI (NCI-H226 lung): > 72 µM
GI50 (NCI-H23 lung): 570 nM
TGI (NCI-H23 lung): > 100 µM
GI50 (NCI-H460 lung): 357 nM
TGI (NCI-H460 lung): > 100 µM
GI50 (NCI-H522 lung): 235 nM
TGI (NCI-H522 lung): 760 nM
GI50 (NCI/ADR-RES ovarian): 395 nM
TGI (NCI/ADR-RES ovarian): > 100 µM
GI50 (OVCAR-4 ovarian): > 100 µM
TGI (OVCAR-4 ovarian): > 100 µM
GI50 (OVCAR-5 ovarian): 917 nM
TGI (OVCAR-5 ovarian): > 100 µM
GI50 (OVCAR-8 ovarian): 428 nM
TGI (OVCAR-8 ovarian): 6.61 µM
GI50 (PC-3 prostate): 449 nM
TGI (PC-3 prostate): > 100 µM
GI50 (RPMI-8226 leukemia): 423 nM
TGI (RPMI-8226 leukemia): > 100 µM
GI50 (RXF 393 renal): 282 nM
TGI (RXF 393 renal): > 100 µM
GI50 (SF-268 CNS): 2510 nM
TGI (SF-268 CNS): > 100 µM
GI50 (SF-295 CNS): 317 nM
TGI (SF-295 CNS): > 83.8 µM
GI50 (SF-539 CNS): 269 nM
TGI (SF-539 CNS): 857 nM
GI50 (SK-MEL-2 melanoma): 504 nM
TGI (SK-MEL-2 melanoma): > 100 µM
GI50 (SK-MEL-28 melanoma): > 100 µM
TGI (SK-MEL-28 melanoma): > 100 µM
GI50 (SK-MEL-5 melanoma): 462 nM
TGI (SK-MEL-5 melanoma): 3.01 µM
GI50 (SK-OV-3 ovarian): 453 nM
TGI (SK-OV-3 ovarian): > 100 µM
GI50 (SN12C renal): 594 nM
TGI (SN12C renal): > 100 µM
GI50 (SNB-19 CNS): 464 nM
TGI (SNB-19 CNS): > 100 µM
GI50 (SNB-75 CNS): 321 nM
TGI (SNB-75 CNS): > 100 µM
GI50 (SR leukemia): 308 nM
TGI (SR leukemia): > 100 µM
GI50 (SW-620 colon): 380 nM
TGI (SW-620 colon): > 100 µM
GI50 (TK-10 renal): > 100 µM
TGI (TK-10 renal): > 100 µM
GI50 (U251 CNS): 365 nM
TGI (U251 CNS): > 100 µM
GI50 (UACC-257 melanoma): 2320 nM
TGI (UACC-257 melanoma): > 100 µM
GI50 (UACC-62 melanoma): 390 nM
TGI (UACC-62 melanoma): > 100 µM
GI50 (UO-31 renal): 686 nM
TGI (UO-31 renal): > 100 µM

Source: PubChem BioAssay (NCI)
